These results are taken from paper PMC5218480 (PLoS ONE, 2017).

For the experiment, the system named is MV-4-11 cells. The experiment is described as follows: Gene expression microarray analysis (Affymetrix PrimeView) and GSEA. Set-up: RFU PODN (11730768_x_at) / Fold change /veh PODN (11730768_x_at) / RFU LINC00158 (11744669_a_at) / Fold change /veh LINC00158 (11744669_a_at) / RFU DUSP10 (11751237_a_at) / Fold change /veh DUSP10 (11751237_a_at) / RFU ID3 (11757404_x_at) / Fold change /veh ID3 (11757404_x_at) / RFU PLEKHG5 (11737974_s_at) / Fold change /veh PLEKHG5 (11737974_s_at) / RFU LRRC4B (11730491_at) / Fold change /veh LRRC4B (11730491_at) / RFU GIMAP4 (11747438_a_at) / Fold change /veh GIMAP4 (11747438_a_at) / RFU KRT8 (11758183_x_at) / Fold change /veh KRT8 (11758183_x_at) / RFU CNN1 (11734310_a_at) / Fold change /veh CNN1 (11734310_a_at) / RFU VPS37D (11726825_at) / Fold change /veh VPS37D (11726825_at) / RFU C10orf10 (11716522_x_at) / Fold change /veh C10orf10 (11716522_x_at) / RFU KIR2DL2 /// KIR2DL4 /// KIR2DL5A /// KIR2DL5B /// KIR2DS1 /// KIR2DS2 /// KIR2DS3 /// KIR2DS4 /// KIR3DL3 /// KIR3DL3 /// KIR3DS1 (11738374_at) / Fold change /veh KIR2DL2 /// KIR2DL4 /// KIR2DL5A /// KIR2DL5B /// KIR2DS1 /// KIR2DS2 /// KIR2DS3 /// KIR2DS4 /// KIR3DL3 /// KIR3DL3 /// KIR3DS1 (11738374_at) / RFU C1QL1 (11718748_at) / Fold change /veh C1QL1 (11718748_at) / RFU TMPRSS4 (11747572_a_at) / Fold change /veh TMPRSS4 (11747572_a_at) / RFU HAMP (11756126_x_at) / Fold change /veh HAMP (11756126_x_at) / RFU RNFT2 (11725882_a_at) / Fold change /veh RNFT2 (11725882_a_at) / RFU NR4A2 (11747474_a_at) / Fold change /veh NR4A2 (11747474_a_at) / RFU ABCC12 (11746883_a_at) / Fold change /veh ABCC12 (11746883_a_at) / RFU TMEM136 (11760407_x_at) / Fold change /veh TMEM136 (11760407_x_at) / RFU CLDN22 /// WWC2 (11732394_at) / Fold change /veh CLDN22 /// WWC2 (11732394_at) / RFU HLA-DPB1 (11760878_x_at) / Fold change /veh HLA-DPB1 (11760878_x_at) / RFU SPINT1 (11716480_a_at) / Fold change /veh SPINT1 (11716480_a_at) / RFU GAP43 (11754022_s_at) / Fold change /veh GAP43 (11754022_s_at) / RFU A4GNT (11735810_at) / Fold change /veh A4GNT (11735810_at) / RFU PRB3 (11715151_x_at) / Fold change /veh PRB3 (11715151_x_at) / RFU TUBB4B (11761932_at) / Fold change /veh TUBB4B (11761932_at) / RFU CAPN14 (11732068_a_at) / Fold change /veh CAPN14 (11732068_a_at) / RFU TMCC2 (11721928_a_at) / Fold change /veh TMCC2 (11721928_a_at) / RFU IRGQ (11745062_a_at) / Fold change /veh IRGQ (11745062_a_at) / RFU FAM174B (11720279_a_at) / Fold change /veh FAM174B (11720279_a_at) / RFU TMPRSS4 (11748680_a_at) / Fold change /veh TMPRSS4 (11748680_a_at) / RFU FAM212B (11763350_a_at) / Fold change /veh FAM212B (11763350_a_at) / RFU PLEKHG5 (11743358_a_at) / Fold change /veh PLEKHG5 (11743358_a_at) / RFU ZSCAN30 (11745921_a_at) / Fold change /veh ZSCAN30 (11745921_a_at) / RFU CMKLR1 (11741424_a_at) / Fold change /veh CMKLR1 (11741424_a_at) / RFU LOC101060620 /// MAPK8IP1 (11723275_at) / Fold change /veh LOC101060620 /// MAPK8IP1 (11723275_at) / RFU SPTSSB (11747773_x_at) / Fold change /veh SPTSSB (11747773_x_at) / RFU PRSS12 (11739890_at) / Fold change /veh PRSS12 (11739890_at) / RFU BIN1 (11741810_x_at) / Fold change /veh BIN1 (11741810_x_at) / RFU WNT11 (11732464_a_at) / Fold change /veh WNT11 (11732464_a_at) / RFU C10orf10 (11716521_a_at) / Fold change /veh C10orf10 (11716521_a_at) / RFU C5orf56 (11738089_at) / Fold change /veh C5orf56 (11738089_at) / RFU CYB561 (11721691_x_at) / Fold change /veh CYB561 (11721691_x_at) / RFU ANKRD19P (11752326_a_at) / Fold change /veh ANKRD19P (11752326_a_at) / RFU OR2T12 /// OR2T33 /// OR2T8 (11738714_s_at) / Fold change /veh OR2T12 /// OR2T33 /// OR2T8 (11738714_s_at) / RFU VCAN (11748164_a_at) / Fold change /veh VCAN (11748164_a_at) / RFU JSRP1 (11732532_at) / Fold change /veh JSRP1 (11732532_at) / RFU KRTAP10-11 (11738290_x_at) / Fold change /veh KRTAP10-11 (11738290_x_at) / RFU MYO3A (11730013_a_at) / Fold change /veh MYO3A (11730013_a_at) / RFU EBF3 (11725865_a_at) / Fold change /veh EBF3 (11725865_a_at) / RFU CAMK2N1 (11719241_x_at) / Fold change /veh CAMK2N1 (11719241_x_at) / RFU C5orf56 (11738088_a_at) / Fold change /veh C5orf56 (11738088_a_at) / RFU OLFML3 (11715873_a_at) / Fold change /veh OLFML3 (11715873_a_at) / RFU LOC100653217 /// NTM (11731650_a_at) / Fold change /veh LOC100653217 /// NTM (11731650_a_at) / RFU MAPK11 (11762145_a_at) / Fold change /veh MAPK11 (11762145_a_at) / RFU FIZ1 (11724087_x_at) / Fold change /veh FIZ1 (11724087_x_at) / RFU OASL (11726364_x_at) / Fold change /veh OASL (11726364_x_at) / RFU SOX15 (11748057_x_at) / Fold change /veh SOX15 (11748057_x_at) / RFU CD79A (11719716_a_at) / Fold change /veh CD79A (11719716_a_at) / RFU HIST1H1D (11736915_at) / Fold change /veh HIST1H1D (11736915_at) / RFU CASKIN2 (11723855_a_at) / Fold change /veh CASKIN2 (11723855_a_at) / RFU LOC730098 (11760151_x_at) / Fold change /veh LOC730098 (11760151_x_at) / RFU OR4N2 (11742367_at) / Fold change /veh OR4N2 (11742367_at) / RFU PRRT2 (11749266_a_at) / Fold change /veh PRRT2 (11749266_a_at) / RFU SNX32 (11753110_a_at) / Fold change /veh SNX32 (11753110_a_at) / RFU CDHR5 (11726645_a_at) / Fold change /veh CDHR5 (11726645_a_at) / RFU RCAN1 (11760418_a_at) / Fold change /veh RCAN1 (11760418_a_at) / RFU FAM167A (11723789_a_at) / Fold change /veh FAM167A (11723789_a_at) / RFU FAM26E (11764081_at) / Fold change /veh FAM26E (11764081_at) / RFU ISYNA1 (11749810_s_at) / Fold change /veh ISYNA1 (11749810_s_at) / RFU ACY1 (11761880_at) / Fold change /veh ACY1 (11761880_at) / RFU 11764098_at / Fold change /veh 11764098_at / RFU SAMD14 (11745864_x_at) / Fold change /veh SAMD14 (11745864_x_at) / RFU NPB (11741838_a_at) / Fold change /veh NPB (11741838_a_at) / RFU TMPRSS6 (11731388_a_at) / Fold change /veh TMPRSS6 (11731388_a_at) / RFU KRTAP10-2 (11738614_at) / Fold change /veh KRTAP10-2 (11738614_at) / RFU ARHGAP8 /// PRR5-ARHGAP8 (11727945_x_at) / Fold change /veh ARHGAP8 /// PRR5-ARHGAP8 (11727945_x_at) / RFU KRTAP5-7 /// NADSYN1 (11734609_at) / Fold change /veh KRTAP5-7 /// NADSYN1 (11734609_at) / RFU RASL12 (11751679_a_at) / Fold change /veh RASL12 (11751679_a_at) / RFU CDKN2B (11736163_a_at) / Fold change /veh CDKN2B (11736163_a_at) / RFU PRF1 (11729649_at) / Fold change /veh PRF1 (11729649_at) / RFU, ZNF638 /// ZNF638-IT1 / Fold change vs veh, ZNF638 /// ZNF638-IT1 / RFU, PANK3 / Fold change vs veh, PANK3 / RFU, SH3YL1 / Fold change vs veh, SH3YL1 / RFU, ZEB2 / Fold change vs veh, ZEB2 / RFU, NRIP1 / Fold change vs veh, NRIP1 / RFU, PTTG1IP / Fold change vs veh, PTTG1IP / RFU, CAPN2 / Fold change vs veh, CAPN2 / RFU, MED14 / Fold change vs veh, MED14 / RFU, SNORA58 / Fold change vs veh, SNORA58 / RFU, C1orf63 / Fold change vs veh, C1orf63 / RFU, LRRFIP1 / Fold change vs veh, LRRFIP1 / RFU, NDUFAF7 / Fold change vs veh, NDUFAF7 / RFU, SLC12A2 / Fold change vs veh, SLC12A2 / RFU, IBTK / Fold change vs veh, IBTK / RFU, ESF1 / Fold change vs veh, ESF1 / Fold change vs veh, TMEM50B / RFU, TAOK1 / Fold change vs veh, TAOK1 / RFU, ACBD3 / Fold change vs veh, ACBD3 / RFU, TMA16 / Fold change vs veh, TMA16 / RFU, RWDD3 / Fold change vs veh, RWDD3 / RFU, BCAT1 / Fold change vs veh, BCAT1 / RFU, EDEM3 / Fold change vs veh, EDEM3 / RFU, TMEM33 / Fold change vs veh, TMEM33 / RFU, WDR75 / Fold change vs veh, WDR75 / RFU, AHCTF1 / Fold change vs veh, AHCTF1 / RFU, TFRC / Fold change vs veh, TFRC / RFU, ZDHHC17 / Fold change vs veh, ZDHHC17 / RFU, NOM1 / Fold change vs veh, NOM1 / RFU, ARL8B / Fold change vs veh, ARL8B / RFU, ZBTB11 / Fold change vs veh, ZBTB11 / RFU, TAMM41 / Fold change vs veh, TAMM41 / RFU, KIAA1704 /// LOC100996395 / Fold change vs veh, KIAA1704 /// LOC100996395 / RFU, ING1 / Fold change vs veh, ING1 / RFU, TRMT61B / Fold change vs veh, TRMT61B / RFU, FUBP3 / Fold change vs veh, FUBP3 / RFU, TP53 / Fold change vs veh, TP53 / RFU, TNKS2 / Fold change vs veh, TNKS2 / RFU, ZFP14 / Fold change vs veh, ZFP14 / RFU, ACTR2 / Fold change vs veh, ACTR2 / RFU, PPP3R1 / Fold change vs veh, PPP3R1 / RFU, PIK3R1 / Fold change vs veh, PIK3R1 / RFU, HNRNPA1 / Fold change vs veh, HNRNPA1 / RFU, RNF170 / Fold change vs veh, RNF170 / RFU, ZNF28 / Fold change vs veh, ZNF28 / RFU, RNGTT / Fold change vs veh, RNGTT / RFU, OGT / Fold change vs veh, OGT / RFU, BRD1 / Fold change vs veh, BRD1 / RFU, MARS / Fold change vs veh, MARS / RFU, ZNF655 / Fold change vs veh, ZNF655 / RFU, FAHD1 / Fold change vs veh, FAHD1 / RFU, BDP1 / Fold change vs veh, BDP1 / RFU, LRRCC1 / Fold change vs veh, LRRCC1 / RFU, ARID1A / Fold change vs veh, ARID1A / RFU, ZNF146 / Fold change vs veh, ZNF146 / RFU, ZNF330 / Fold change vs veh, ZNF330 / RFU, GPN3 / Fold change vs veh, GPN3 / RFU, C9orf123 / Fold change vs veh, C9orf123 / RFU, N4BP2L2 / Fold change vs veh, N4BP2L2 / RFU, ARFIP1 / Fold change vs veh, ARFIP1 / RFU, FAM179B / Fold change vs veh, FAM179B / RFU, BCL10 / Fold change vs veh, BCL10 / RFU, UHRF1BP1L / Fold change vs veh, UHRF1BP1L / RFU, BET1 / Fold change vs veh, BET1 / RFU, CNOT2 / Fold change vs veh, CNOT2 / RFU, ZNF268 / Fold change vs veh, ZNF268 / Fold change vs veh, ZNF507 / RFU, DGCR2 / Fold change vs veh, DGCR2 / RFU, WDSUB1 / Fold change vs veh, WDSUB1 / Fold change vs veh, HSP90B1 /// MIR3652 / RFU, ADSS / Fold change vs veh, ADSS / RFU, GK / Fold change vs veh, GK / RFU, ZNF148 / Fold change vs veh, ZNF148 / RFU, TAF9 / Fold change vs veh, TAF9 / RFU, SLC1A5 / Fold change vs veh, SLC1A5 / RFU, SLMO2 / Fold change vs veh, SLMO2 / RFU, ABCC4 / Fold change vs veh, ABCC4 / RFU, LOC101060439 /// RAP1B / Fold change vs veh, LOC101060439 /// RAP1B / RFU, RFX7 / Fold change vs veh, RFX7 / RFU, GTPBP10 / Fold change vs veh, GTPBP10 / RFU, CNEP1R1 / Fold change vs veh, CNEP1R1 / RFU, BIVM-ERCC5 /// ERCC5 / Fold change vs veh, BIVM-ERCC5 /// ERCC5 / RFU, ILF3 / Fold change vs veh, ILF3 / RFU 11762660_at / Fold change /veh 11762660_at / RFU VCAN (11757783_s_at) / Fold change /veh VCAN (11757783_s_at) / RFU DDX43 (11728927_at) / Fold change /veh DDX43 (11728927_at) / RFU KRT8 (11758188_x_at) / Fold change /veh KRT8 (11758188_x_at) / RFU NKD1 (11759106_at) / Fold change /veh NKD1 (11759106_at) / RFU SRD5A1 (11742802_a_at) / Fold change /veh SRD5A1 (11742802_a_at) / RFU TPSAB1 /// TPSB2 (11721975_s_at) / Fold change /veh TPSAB1 /// TPSB2 (11721975_s_at) / RFU GSTM3 (11746129_a_at) / Fold change /veh GSTM3 (11746129_a_at) / RFU IL23R (11737362_x_at) / Fold change /veh IL23R (11737362_x_at) / RFU TMEM51 (11727254_a_at) / Fold change /veh TMEM51 (11727254_a_at) / RFU PIWIL2 (11732686_x_at) / Fold change /veh PIWIL2 (11732686_x_at) / RFU ORM1 (11744905_x_at) / Fold change /veh ORM1 (11744905_x_at) / RFU CCDC152 (11743942_at) / Fold change /veh CCDC152 (11743942_at) / RFU ECM1 (11717891_a_at) / Fold change /veh ECM1 (11717891_a_at) / RFU IL23R (11748794_a_at) / Fold change /veh IL23R (11748794_a_at) / RFU TNFAIP8L3 (11732012_x_at) / Fold change /veh TNFAIP8L3 (11732012_x_at) / RFU MBOAT4 (11741988_at) / Fold change /veh MBOAT4 (11741988_at) / RFU 11764193_at / Fold change /veh 11764193_at / RFU TMEM53 (11763286_at) / Fold change /veh TMEM53 (11763286_at) / RFU MAGEB2 (11727129_at) / Fold change /veh MAGEB2 (11727129_at) / RFU TMEM200A (11744735_a_at) / Fold change /veh TMEM200A (11744735_a_at) / RFU CCDC152 (11751479_a_at) / Fold change /veh CCDC152 (11751479_a_at) / RFU FAM211A (11726209_a_at) / Fold change /veh FAM211A (11726209_a_at) / RFU RGS16 (11746705_a_at) / Fold change /veh RGS16 (11746705_a_at) / RFU VCAN (11755009_s_at) / Fold change /veh VCAN (11755009_s_at) / RFU RHOB (11743442_s_at) / Fold change /veh RHOB (11743442_s_at) / RFU RGS16 (11720943_a_at) / Fold change /veh RGS16 (11720943_a_at) / RFU RGS16 (11720944_at) / Fold change /veh RGS16 (11720944_at) / RFU, VPS4B / Fold change vs veh, VPS4B / RFU, CREB1 / Fold change vs veh, CREB1 / RFU, DNAJC13 / Fold change vs veh, DNAJC13 / RFU, GNAQ / Fold change vs veh, GNAQ / RFU, CDK5R1 / Fold change vs veh, CDK5R1 / RFU, ZRANB3 / Fold change vs veh, ZRANB3 / RFU, CUL4A / Fold change vs veh, CUL4A / RFU, CCNY / Fold change vs veh, CCNY / RFU, UFL1 / Fold change vs veh, UFL1 / RFU, COG3 / Fold change vs veh, COG3 / RFU, DIAPH2 / Fold change vs veh, DIAPH2 / RFU, SKA2 / Fold change vs veh, SKA2 / RFU, AFF3 / Fold change vs veh, AFF3 / RFU, LMF1 / Fold change vs veh, LMF1 / RFU, IPO11 / Fold change vs veh, IPO11 / RFU, DFFB / Fold change vs veh, DFFB / RFU, FOXP1 / Fold change vs veh, FOXP1 / RFU, CARD8 / Fold change vs veh, CARD8 / RFU, STRN3 / Fold change vs veh, STRN3 / RFU, ADK / Fold change vs veh, ADK / RFU, RASSF2 / Fold change vs veh, RASSF2 / RFU, WIPF1 / Fold change vs veh, WIPF1 / RFU, LARP1B / Fold change vs veh, LARP1B / RFU, RASA1 / Fold change vs veh, RASA1 / RFU, RB1 / Fold change vs veh, RB1 / RFU, PPFIA1 / Fold change vs veh, PPFIA1 / RFU, MAT2A / Fold change vs veh, MAT2A / RFU, CCT5 / Fold change vs veh, CCT5 / RFU, WDR92 / Fold change vs veh, WDR92 / RFU, CUX1 / Fold change vs veh, CUX1 / RFU, TTC7A / Fold change vs veh, TTC7A / RFU, TMEM135 / Fold change vs veh, TMEM135 / RFU, DEPTOR / Fold change vs veh, DEPTOR / RFU, CPM / Fold change vs veh, CPM / RFU, DNAJB6 / Fold change vs veh, DNAJB6 / RFU, CACNA2D3 / Fold change vs veh, CACNA2D3 / RFU, DTX4 / Fold change vs veh, DTX4 / RFU, TFCP2 / Fold change vs veh, TFCP2 / RFU, GMCL1 /// GMCL1P1 / Fold change vs veh, GMCL1 /// GMCL1P1 / RFU, AEBP2 / Fold change vs veh, AEBP2 / RFU, SNHG1 /// SNORD22 /// SNORD25 /// SNORD26 /// SNORD27 /// SNORD28 /// SNORD29 /// SNORD31 / Fold change vs veh, SNHG1 /// SNORD22 /// SNORD25 /// SNORD26 /// SNORD27 /// SNORD28 /// SNORD29 /// SNORD31 / Fold change (Aza/veh), C12orf56 (ProbeSet 11735607_a_at) / Fold change (ACY-1035/veh), C12orf56 (ProbeSet 11735607_a_at) / Fold change (Aza/veh), FGFR1OP (ProbeSet 11751329_s_at) / Fold change (ACY-1035/veh), FGFR1OP (ProbeSet 11751329_s_at) / Fold change (Aza/veh), VPS36 (ProbeSet 11739960_a_at) / Fold change (ACY-1035/veh), VPS36 (ProbeSet 11739960_a_at) / RFU SYPL1 (11715823_x_at) / Fold change /veh SYPL1 (11715823_x_at) / RFU IGFBP7 (11715501_s_at) / Fold change /veh IGFBP7 (11715501_s_at) / RFU REEP3 (11722064_at) / Fold change /veh REEP3 (11722064_at) / RFU IGLL1 (11728026_x_at) / Fold change /veh IGLL1 (11728026_x_at): dose or concentration left out as unconfirmed. The format is cell-based, human. The note with it: ProbeSet 11719632_a_at; LIST B.

For `Nc1ncn([C@@H]2O[C@H](CO)[C@@H](O)[C@H]2O)c(=O)n1` [azacitidine], the “RFU, ABCC4” value came out at 39.11 RFU.
